The values that follow come from ChEMBL document CHEMBL2417443, “Efficient synthesis and antiproliferative activity of novel thioether-substituted flavonoids” (Eur J Med Chem, 2013).

A value given as a limit tells only on which side of the number the result lay.

Assay [1] relates to SW480. The assay is described as follows: Cell cycle arrest in human SW480 cells assessed as accumulation at G2/M phase after 48 hrs by propidium iodide staining-based flow cytometry. It is filed as functional.
In assay [2] the test system is SW480. Kind of assay: Cell cycle arrest in human SW480 cells assessed as accumulation at G0/G1 phase at 1.2 uM after 48 hrs by propidium iodide staining-based flow cytometry (reference value: 72.00 +/- 4.30%). It is filed as functional. For orientation: In flow cytometry, cells or beads pass a laser one at a time.
The test system of assay [3] is HEp-2. The assay is described as follows: Ratio of 5-fluorouracil IC50 to compound IC50 for human Hep2 cells. It is filed as functional.
Assay [4] has as its system SW480. The assay is described as follows: Cytotoxicity against human SW480 cells after 72 hrs by MTT assay. It is filed as functional, cell-based. As to conditions: SW480, 72 h.
The subject of assay [5] is SW480. The assay is described as follows: Cell cycle arrest in human SW480 cells assessed as accumulation at G0/G1 phase at 0.8 uM after 48 hrs by propidium iodide staining-based flow cytometry (reference value: 72.00 +/- 4.30%). It is filed as functional.
The test system of assay [6] is SW480. Kind of assay: Cell cycle arrest in human SW480 cells assessed as accumulation at G0/G1 phase at 1 uM after 48 hrs by propidium iodide staining-based flow cytometry (reference value: 72.00 +/- 4.30%). The format is functional.
The nature of assay [7]: Ratio of 5-fluorouracil IC50 to compound IC50 for human MDA-MB-435S cells. The format is functional.
A short description of assay [8]: Cytotoxicity against human MDA-MB-435S cells after 72 hrs by MTT assay. The format is functional, cell-based. In general terms: Tetrazolium dyes change colour on reduction, which living cells bring about.
For assay [9], the system named is SW480. The assay is described as follows: Cell cycle arrest in human SW480 cells assessed as accumulation at S phase at 1 uM after 48 hrs by propidium iodide staining-based flow cytometry (reference value: 14.01 +/- 0.86%). The format is functional.
For assay [10], the system named is SW480. The assay is described as follows: Cell cycle arrest in human SW480 cells assessed as accumulation at S phase at 1.2 uM after 48 hrs by propidium iodide staining-based flow cytometry (reference value: 14.01 +/- 0.86%). The format is functional.
In assay [11] the test system is MCF7. The assay is described as follows: Ratio of 5-fluorouracil IC50 to compound IC50 for human MCF7 cells. The format is functional.
Assay [12] relates to SW480. Kind of assay: Cell cycle arrest in human SW480 cells assessed as accumulation at G2/M phase at 0.8 uM after 48 hrs by propidium iodide staining-based flow cytometry (reference value: 13.99 +/- 0.35%). The format is functional.
The nature of assay [13]: Ratio of 5-fluorouracil IC50 to compound IC50 for human LM7 cells. The format is functional.
For assay [14], the system named is HeLa. Kind of assay: Ratio of 5-fluorouracil IC50 to compound IC50 for human HeLa cells. The format is functional.
The test system of assay [15] is MCF7. Kind of assay: Cytotoxicity against human MCF7 cells after 72 hrs by MTT assay. It is filed as functional, cell-based. The note with it: MCF7, 72 h.
Assay [16] concerns SW480. Kind of assay: Cell cycle arrest in human SW480 cells assessed as accumulation at G2/M phase at 1.2 uM after 48 hrs by propidium iodide staining-based flow cytometry (reference value: 13.99 +/- 0.35%). The format is functional.
The test system of assay [17] is SW480. Kind of assay: Cell cycle arrest in human SW480 cells assessed as accumulation at G2/M phase at 1 uM after 48 hrs by propidium iodide staining-based flow cytometry (reference value: 13.99 +/- 0.35%). It is filed as functional.
The nature of assay [18]: Cytotoxicity against human LM7 cells after 72 hrs by MTT assay. The note with it: LM7, 72 h. The format is functional, cell-based.
Assay [19] relates to HeLa. The assay is described as follows: Cytotoxicity against human HeLa cells after 72 hrs by MTT assay. It is filed as functional, cell-based.
In assay [20] the test system is SW480. The assay is described as follows: Cell cycle arrest in human SW480 cells assessed as accumulation at S phase at 0.8 uM after 48 hrs by propidium iodide staining-based flow cytometry (reference value: 14.01 +/- 0.86%). The format is functional.
In assay [21] the test system is HEp-2. Kind of assay: Cytotoxicity against human Hep2 cells after 72 hrs by MTT assay. The format is functional, cell-based. The note with it: HEp-2, 72 h.
Assay [22] deals with SW480. Kind of assay: Ratio of 5-fluorouracil IC50 to compound IC50 for human SW480 cells. The format is functional.

With `Cc1nnc(SCc2coc3ccccc3c2=O)s1`, the Activity result with SW480 [1] is “Dose-dependent effect”; with SW480 [2], 42.84%; in the assay on SW480 [5], 62.5%; in the assay on SW480 [6], 54.99%; in the assay on SW480 [9], 18.27%; in the assay with SW480 [10] it was 19.13%. Further, the Activity is 22.03% in the assay with SW480 [12], 38.03% in the assay on SW480 [16], 26.74% with SW480 [17] and 15.47% with SW480 [20]. In addition, the “Ratio IC50” value in the assay with HEp-2 [3] worked out at 33.9; in assay [7] it was 8.3; in the assay with MCF7 [11], 0.5; in assay [13] it was 6.6; with HeLa [14], 0.7; in the assay with SW480 [22], 2.3. Besides, the half-inhibitory concentration (IC50) (commonly the concentration needed to halve the response being measured) in the assay with SW480 [4] was 1 µM; in assay [8], 0.63 µM; with MCF7 [15], 6.7 µM; in assay [18], 0.43 µM; in the assay on HeLa [19], 2.3 µM; in the assay with HEp-2 [21], 2.9 µM.
On to `Cc1cc(O)cc2oc(=O)cc(CSc3nc4ccccc4s3)c12`, for which the IC50 (with SW480 [4]; in assay [8]; in the assay with MCF7 [15]; in assay [18]; with HeLa [19]; in the assay on HEp-2 [21]) was above 25 µM each time.
As for `Cc1ccc2oc(CSc3nnc(C)s3)cc(=O)c2c1`, the IC50 (in the assay on SW480 [4]; in assay [8]; in the assay with MCF7 [15]; in [18]; in the assay with HeLa [19]; in the assay with HEp-2 [21]) was above 25 µM throughout.
For `Cc1cc(C)n2nc(SCn3cnc4c(Cl)cccc4c3=O)nc2n1`, the concentration for half-maximal inhibition (IC50) (with SW480 [4]; in assay [8]; with MCF7 [15]; in assay [18]; with HeLa [19]; with HEp-2 [21]) was above 25 µM in each case.
Regarding `Cc1cc(C)n2nc(SCc3nnc(SCc4cc(=O)c5ccccc5o4)s3)nc2n1`, the IC50 (in the assay with SW480 [4]; in assay [8]; with MCF7 [15]; in [18]; with HeLa [19]; in the assay with HEp-2 [21]) was above 25 µM each time.
Regarding `Cc1ccc2oc(CSc3nnc(N)s3)cc(=O)c2c1`, the IC50 (in the assay on SW480 [4]; in assay [8]; with MCF7 [15]; in assay [18]; with HeLa [19]; with HEp-2 [21]) was above 25 µM in each case.
`Nc1nnc(SCc2cc(=O)c3cc(Cl)ccc3o2)s1`: the IC50 (in the assay with SW480 [4]; in [8]; with MCF7 [15]; in assay [18]; with HeLa [19]; in the assay with HEp-2 [21]) was above 25 µM throughout.
As to `Cc1cc(C)n2nc(SCc3nnc(SCc4cc(=O)oc5c4ccc4ccccc45)s3)nc2n1`, the half-maximal inhibitory concentration (IC50) (with SW480 [4]; in assay [8]; in the assay on MCF7 [15]; in assay [18]; in the assay with HeLa [19]; in the assay with HEp-2 [21]) was above 25 µM throughout.
`Cc1ccc2oc(CSc3nc4nc(C)cc(C)n4n3)cc(=O)c2c1`: the concentration for half-maximal inhibition (IC50) (with SW480 [4]; in assay [8]; in the assay on MCF7 [15]; in assay [18]; in the assay with HeLa [19]; with HEp-2 [21]) was above 25 µM each time.
With `Cc1nnc(Sc2c(C)oc3ccccc3c2=O)o1`, the concentration for half-maximal inhibition (IC50) (in the assay with SW480 [4]; in assay [8]; with MCF7 [15]; in [18]; in the assay with HeLa [19]; with HEp-2 [21]) was above 50 µM each time.
For the compound `O=c1cc(SCn2cnc3ccccc3c2=O)sc2ccccc12`, the IC50 is 8.5 µM in the assay with SW480 [4]; 4.1 µM in [8]; 5.3 µM with MCF7 [15]; 17 µM in assay [18]; 6.3 µM in the assay on HeLa [19]; 5.9 µM in the assay on HEp-2 [21].
In the case of `Cc1nnc(SCc2coc3ccccc3c2=O)o1`, the “Ratio IC50” value in the assay on HEp-2 [3] is 33.9; in [7] it was 8.3; in the assay on MCF7 [11], 0.5; in assay [13] it was 6.6; in the assay with HeLa [14] it was 0.7; with SW480 [22] it was 2.3. Also, the IC50 in the assay with SW480 [4] is 0.79 µM; in assay [8], 1.2 µM; with MCF7 [15], 4.6 µM; in [18] it was 3.5 µM; with HeLa [19], 1.4 µM; with HEp-2 [21], 3.8 µM.
`O=c1c(CSc2cc(=O)c3ccccc3s2)coc2ccccc12`: the “Ratio IC50” value in the assay on HEp-2 [3] is 33.9; in [7], 8.3; with MCF7 [11] it was 0.5; in [13] it was 6.6; in the assay on HeLa [14] it was 0.7; with SW480 [22] it was 2.3. The IC50 was determined as 3.6 µM in the assay on SW480 [4]; 1.7 µM in assay [8]; 5.4 µM with MCF7 [15]; 2.8 µM in assay [18]; 2.6 µM with HeLa [19]; 1.4 µM with HEp-2 [21].
Take `O=c1cc(CSc2nc3ccccc3s2)oc2ccccc12`: the half-maximal inhibitory concentration (IC50) (in the assay on SW480 [4]; in [8]; in the assay with MCF7 [15]; in assay [18]; in the assay with HeLa [19]; in the assay on HEp-2 [21]) was above 25 µM throughout.
Take `Cc1ccc2oc(CSc3nnc(C)o3)cc(=O)c2c1`: the IC50 (in the assay on SW480 [4]; in assay [8]; in the assay on MCF7 [15]; in assay [18]; in the assay on HeLa [19]; with HEp-2 [21]) was above 25 µM in each case.
In the case of `Cc1nnc(Sc2coc3ccccc3c2=O)s1`, the 50% inhibitory concentration (IC50) (in the assay on SW480 [4]; in assay [8]; with MCF7 [15]; in [18]; with HeLa [19]; with HEp-2 [21]) was above 50 µM each time.
On to `O=c1c(CSc2nc3ccccc3o2)coc2ccccc12`, for which the half-inhibitory concentration (IC50) is 3.2 µM in the assay on SW480 [4]; 1.4 µM in assay [8]; 4.8 µM with MCF7 [15]; 5.3 µM in assay [18]; above 25 µM in the assay on HeLa [19]; 2.7 µM in the assay on HEp-2 [21].
Turning to `Cc1cc(C)n2nc(SCc3cc(=O)c4ccccc4o3)nc2n1`, the IC50 (with SW480 [4]; in [8]; with MCF7 [15]; in [18]; in the assay with HeLa [19]; with HEp-2 [21]) was above 25 µM in each case.
As for `O=c1c2cccc(Cl)c2ncn1CSc1nc2ccccc2s1`, the IC50 (in the assay with SW480 [4]; in assay [8]; in the assay with MCF7 [15]; in [18]; in the assay with HeLa [19]; in the assay on HEp-2 [21]) was above 25 µM throughout.
